Data taken from ChEMBL document CHEMBL1201862, “PubChem BioAssay data set” (2004).
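Dose response: 5 concentrations. Exposure: 48 h. Format: 96-well plates. Endpoint: linear interpolation; highest concentration if not reached. Here, GI50 denotes the concentration required for 50% inhibition of growth.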 Active and inactive are the calls of the source. Cut-off read from the data, not from the text of the source: active = GI50 up to about 1.1 µM and inactive = higher.

Legend:
Experiment in all cases: DTP human tumour cell line panel, 48 h
DU-145 = test system: DU-145
HCC 2998 = test system: HCC 2998
HT-29 = test system: HT-29
M14 = test system: M14
MDA-MB-435 = test system: MDA-MB-435
NCI-H226 = test system: NCI-H226
NCI/ADR-RES = test system: NCI/ADR-RES
OVCAR-4 = test system: OVCAR-4
RXF 393 = test system: RXF 393
SF-268 = test system: SF-268
SN12C = test system: SN12C
SNB-19 = test system: SNB-19
SR = test system: SR
U-251 = test system: U-251
COLO 205 = test system: COLO 205
HOP-62 = test system: HOP-62
LOX IMVI = test system: LOX IMVI
RPMI-8226 = test system: RPMI-8226
SK-MEL-28 = test system: SK-MEL-28
CAKI-1 = test system: CAKI-1

SMILES | GI50 (DU-145) | GI50 (HCC 2998) | GI50 (HT-29) | GI50 (M14) | GI50 (MDA-MB-435) | GI50 (NCI-H226) | GI50 (NCI/ADR-RES) | GI50 (OVCAR-4) | GI50 (RXF 393) | GI50 (SF-268) | GI50 (SN12C) | GI50 (SNB-19) | GI50 (SR) | GI50 (U-251) | GI50 (COLO 205) | GI50 (HOP-62) | GI50 (LOX IMVI) | GI50 (RPMI-8226) | GI50 (SK-MEL-28) | GI50 (CAKI-1)
CCOC(=O)c1c(-c2ccccc2)c(-c2ccccc2)cn1C | 8.95 µM (inactive) | > 10 µM (inactive) | 8.67 µM (inactive) | > 10 µM (inactive) | > 10 µM (inactive) | > 10 µM (inactive) | 5.82 µM (inactive) | > 10 µM (inactive) | 3.93 µM (inactive) | > 10 µM (inactive) | > 10 µM (inactive) | > 10 µM (inactive) | 3.51 µM (inactive) | > 10 µM (inactive) |  |  |  |  |  | 
CCOC(=O)NC(C(F)(F)F)(C(F)(F)F)P(=O)(OC(C)C)OC(C)C | > 100 µM (inactive) | > 100 µM (inactive) | > 100 µM (inactive) |  | > 100 µM (inactive) | 58.7 µM (inactive) | > 100 µM (inactive) | > 100 µM (inactive) | > 100 µM (inactive) | > 100 µM (inactive) | > 100 µM (inactive) | > 100 µM (inactive) | > 100 µM (inactive) | > 100 µM (inactive) | > 100 µM (inactive) | > 100 µM (inactive) | > 100 µM (inactive) | > 100 µM (inactive) | > 100 µM (inactive) | 
CCOC(=O)c1c(SCc2ccccc2)nc2c3ccccc3ccn12 | > 100 µM (inactive) | > 100 µM (inactive) | > 100 µM (inactive) | > 100 µM (inactive) | > 100 µM (inactive) | 33.7 µM (inactive) | > 100 µM (inactive) | 56 µM (inactive) | 70.6 µM (inactive) | 94 µM (inactive) | > 100 µM (inactive) |  | 47 µM (inactive) | 57.7 µM (inactive) | > 100 µM (inactive) | 40.1 µM (inactive) | > 100 µM (inactive) | > 100 µM (inactive) | > 100 µM (inactive) | > 100 µM (inactive)
CC(C)(CC1(C)NC(=O)NC1=O)OCc1ccccc1 (stereo not given) | > 100 µM (inactive) | > 100 µM (inactive) | > 100 µM (inactive) | > 100 µM (inactive) | > 100 µM (inactive) |  | > 100 µM (inactive) | > 100 µM (inactive) | > 100 µM (inactive) | > 100 µM (inactive) | > 100 µM (inactive) | > 100 µM (inactive) | > 100 µM (inactive) | > 100 µM (inactive) |  | > 100 µM (inactive) | > 100 µM (inactive) | > 100 µM (inactive) | > 100 µM (inactive) | > 100 µM (inactive)
COc1ccc(/C=N/NC(=O)c2ccc(O)c(CN(C)C)c2)cc1 | > 100 µM (inactive) | > 100 µM (inactive) | > 100 µM (inactive) | > 100 µM (inactive) | 47.3 µM (inactive) | > 100 µM (inactive) | > 100 µM (inactive) | > 100 µM (inactive) | > 100 µM (inactive) | > 100 µM (inactive) | > 100 µM (inactive) | > 100 µM (inactive) | > 100 µM (inactive) | > 100 µM (inactive) | > 100 µM (inactive) | > 100 µM (inactive) | > 100 µM (inactive) |  | > 100 µM (inactive) | > 100 µM (inactive)
COC(=O)c1ccc(C)cc1C1CN=NC12Cc1c(C)cccc1C2=O (stereo not given) | 55.7 µM (inactive) | > 100 µM (inactive) | 31.1 µM (inactive) |  | 41 µM (inactive) | 47 µM (inactive) | 20.3 µM (inactive) | 44.1 µM (inactive) | 48.3 µM (inactive) | 52.2 µM (inactive) | 36 µM (inactive) | 73.1 µM (inactive) | 33.3 µM (inactive) | 42.1 µM (inactive) | 20.2 µM (inactive) | 46.8 µM (inactive) | 24.3 µM (inactive) | 36.6 µM (inactive) | 80.4 µM (inactive) | 50.6 µM (inactive)
C1CSCC2(COC2)CS1 | > 100 µM (inactive) | > 100 µM (inactive) | > 100 µM (inactive) |  | > 100 µM (inactive) | > 100 µM (inactive) | > 100 µM (inactive) | > 100 µM (inactive) | > 100 µM (inactive) | > 100 µM (inactive) | > 100 µM (inactive) | > 100 µM (inactive) | > 100 µM (inactive) | > 100 µM (inactive) | > 100 µM (inactive) |  | > 100 µM (inactive) |  | > 100 µM (inactive) | 
O=C(N/N=C(/c1ccccc1)C(F)(F)F)c1ccncc1 | > 100 µM (inactive) | > 100 µM (inactive) | > 100 µM (inactive) | > 100 µM (inactive) | > 100 µM (inactive) | > 100 µM (inactive) | > 100 µM (inactive) |  | 0.923 µM (active) |  | > 100 µM (inactive) | > 100 µM (inactive) | > 100 µM (inactive) | > 100 µM (inactive) | > 100 µM (inactive) | > 100 µM (inactive) |  | > 100 µM (inactive) | > 100 µM (inactive) | > 100 µM (inactive)
C=C1C(O)CC[C@]2(C)C1C1OC(C)(C)O[C@]13CC(=O)C(C)=C([C@H]1OC(C)(C)OC12)C3(C)C (stereo not given in full) | > 100 µM (inactive) | > 100 µM (inactive) | > 100 µM (inactive) |  | > 100 µM (inactive) | > 100 µM (inactive) | > 100 µM (inactive) | 96.4 µM (inactive) | 27.4 µM (inactive) | > 100 µM (inactive) | > 100 µM (inactive) | > 100 µM (inactive) | > 100 µM (inactive) | > 100 µM (inactive) | > 100 µM (inactive) | > 100 µM (inactive) | > 100 µM (inactive) | 96.8 µM (inactive) | > 100 µM (inactive) | > 100 µM (inactive)
COc1ccc(/N=C2/SC(=N/N=c3\sc4ccccc4n3C)S/C2=N/c2ccc(OC)cc2)cc1 | > 100 µM (inactive) | > 100 µM (inactive) | > 100 µM (inactive) | > 100 µM (inactive) | > 100 µM (inactive) | 49 µM (inactive) | > 100 µM (inactive) |  | 34 µM (inactive) | > 100 µM (inactive) | > 100 µM (inactive) | > 100 µM (inactive) | > 100 µM (inactive) | 55.5 µM (inactive) | > 100 µM (inactive) | 31.6 µM (inactive) |  | > 100 µM (inactive) | > 100 µM (inactive) | > 100 µM (inactive)
CCC1(O)CC(CCN(Cc2ccccc2)C(=O)OCc2ccccc2)C(OCc2ccccc2)C1O (stereo not given) | 18.5 µM (inactive) | 14 µM (inactive) | 15.3 µM (inactive) | 15.5 µM (inactive) | 18.4 µM (inactive) | 10.7 µM (inactive) | 10.8 µM (inactive) | 7.66 µM (inactive) | 16.3 µM (inactive) |  | 24.4 µM (inactive) | 15.6 µM (inactive) | 12.2 µM (inactive) | 27.9 µM (inactive) | 16.2 µM (inactive) | 14.5 µM (inactive) | 21.9 µM (inactive) |  | 15.7 µM (inactive) | 25.3 µM (inactive)
